Assay results reported in ChEMBL document CHEMBL5236595, “JDQ443, a Structurally Novel, Pyrazole-Based, Covalent Inhibitor of KRASG12C for the Treatment of Solid Tumors” (J Med Chem, 2022).
pIC50: −log10 of the molar value. ≈ marks a conversion by molar mass, not a printed value.

How the values were obtained:
[1] = test system: GTPase KRas (Homo sapiens), P01116 [G12C]; assay: Displacement of [acrylamide-2,3-3H2]-N-(3-fluoro-4-(2-methyl-3-(5-methyl-1H- indazole-4-yl)-1H-pyrrolo[ 2,3-b]pyridin-1-yl)-phenyl from KRAS G12C mutant (unknown origin) assessed as ratio of Kinact/Ki by competitive scintillation proximity assay
GTPase KRas = GTPase KRas (Homo sapiens, UniProt P01116, G12C); assay: Inhibition of KRAS G12C mutant in human NCI-H358 cells assessed as reduction in ERK phosphorylation incubated for 6 hrs by MSD assay; assay type: cell-based
[2] = Aqueous solubility of compound in pH 6.8; assay type: physicochemical; conditions: aqueous medium
[3] = Lipophilicity, logD of compound at pH 7.4; assay type: physicochemical; conditions: buffer
[4] = AUC in human MIA PaCa-2 cells xenografted mouse at 30 mg/kg, po; assay type: ADME, organism-based; design: dose 30 mg/kg, route po; conditions: in vivo
[5] = Cmax in human MIA PaCa-2 cells xenografted mouse at 30 mg/kg, po; assay type: ADME, organism-based; design: dose 30 mg/kg, route po; conditions: in vivo
[6] = test system: GTPase KRas (Homo sapiens), P01116 [G12C]; assay: In vivo target occupancy at KRAS G12C mutant in human MIA PaCa-2 cells xenografted mouse assessed as decrease in free KRAS G12C level at 30 mg/kg, po after 3 hrs; assay type: functional, organism-based
[7] = test system: GTPase KRas (Homo sapiens), P01116 [G12C]; assay: In vivo target occupancy at KRAS G12C mutant in human MIA PaCa-2 cells xenografted mouse assessed as decrease in free KRAS G12C level at 30 mg/kg, po after 24 hrs; assay type: functional, organism-based
[8] = test system: GTPase KRas (Homo sapiens), P01116 [G12C]; assay: In vivo target occupancy at KRAS G12C mutant in human MIA PaCa-2 cells xenografted mouse assessed as decrease in […] expression at 30 mg/kg, po after 3 hrs; assay type: functional, organism-based
[9] = test system: GTPase KRas (Homo sapiens), P01116 [G12C]; assay: In vivo target occupancy at KRAS G12C mutant in human MIA PaCa-2 cells xenografted mouse assessed as decrease in […] expression at 30 mg/kg, po after 24 hrs; assay type: functional, organism-based
[10] = Apparent permeability across apical to basolateral side in MDCK-MDR1 cells at 10 uM after 2 hrs by LC-MS/MS analysis; assay type: ADME, cell-based, Canis lupus familiaris; conditions: dog
[11] = Aqueous solubility of compound in pH 4; assay type: physicochemical; conditions: aqueous medium
[12] = test system: GTPase KRas (Homo sapiens), P01116 [G12C]; assay: In vivo target occupancy at KRAS G12C mutant in human MIA PaCa-2 cells xenografted mouse assessed as decrease in free KRAS G12C level at 30 mg/kg, po after 6 hrs; assay type: functional, organism-based
[13] = test system: GTPase KRas (Homo sapiens), P01116 [G12C]; assay: In vivo target occupancy at KRAS G12C mutant in human MIA PaCa-2 cells xenografted mouse assessed as decrease in […] expression at 30 mg/kg, po after 6 hrs; assay type: functional, organism-based
[14] = Volume of distribution at steady state in mouse at 1 mg/kg, iv measured upto 24 hrs by LC-MS/MS method; assay type: ADME, organism-based; conditions: in vivo, read-out: Vdss
[15] = Tmax in mouse at 30 mg/kg, po measured upto 24 hrs by LC-MS/MS method; assay type: ADME, organism-based; conditions: in vivo
[16] = Cmax in mouse at 30 mg/kg, po measured upto 24 hrs by LC-MS/MS method; assay type: ADME, organism-based; design: dose 30 mg/kg, time < 24 hrs, route po; conditions: in vivo
[17] = AUCinfinity in mouse at 30 mg/kg, po measured upto 24 hrs by LC-MS/MS method; assay type: ADME, organism-based; design: dose 30 mg/kg, time < 24 hrs, route po; conditions: in vivo
[18] = Volume of distribution at steady state in Beagle dog at 0.1 mg/kg, iv measured upto 24 hrs by LC-MS/MS method; assay type: ADME, organism-based, Canis lupus familiaris; conditions: in vivo, read-out: Vdss
[19] = Tmax in Beagle dog at 15 mg/kg, po measured upto 24 hrs by LC-MS/MS method; assay type: ADME, organism-based, Canis lupus familiaris; conditions: in vivo
[20] = Cmax in Beagle dog at 15 mg/kg, po measured upto 24 hrs by LC-MS/MS method; assay type: ADME, organism-based, Canis lupus familiaris; design: time < 24 hrs, dose 15 mg/kg, route po; conditions: in vivo
[21] = AUCinfinity in Beagle dog at 15 mg/kg, po measured upto 24 hrs by LC-MS/MS method; assay type: ADME, organism-based, Canis lupus familiaris; design: dose 15 mg/kg, time < 24 hrs, route po; conditions: in vivo
[22] = Dose normalized AUC in Beagle dog at 15 mg/kg, po measured upto 24 hrs by LC-MS/MS method; assay type: ADME, organism-based, Canis lupus familiaris; conditions: in vivo
[23] = Dose normalized AUC in mouse at 30 mg/kg, po measured upto 24 hrs by LC-MS/MS method; assay type: ADME, organism-based; conditions: in vivo
NCI-H358 = assay: Antiproliferative activity against human NCI-H358 cells by resazurin assay; assay type: functional
NCI-H1437 = assay: Antiproliferative activity against human NCI-H1437 cells by resazurin assay; assay type: functional
[24] = Solubility of compound in FaSSIF; assay type: ADME
[25] = Solubility of compound in FeSSIF; assay type: ADME
[26] = Apparent permeability in human Caco-2 cells; assay type: ADME, cell-based
Cytochrome P450 3A4 [27] = target: T1, Cytochrome P450 3A4 (Homo sapiens, UniProt P08684); assay: Inhibition of CYP3A4 in human liver microsomes using testosterone as substrate incubated for 10 to 30 mins in presence of NADPH by LC-MS/MS method; assay type: ADME, Microsome
Cytochrome P450 2D6 = Cytochrome P450 2D6 (Homo sapiens, UniProt P10635); assay: Inhibition of CYP2D6 in human liver microsomes using bufuralol as substrate incubated for 10 to 30 mins in presence of NADPH by LC-MS/MS method; assay type: ADME, Microsome
Cytochrome P450 2C9 [28] = target: T2, Cytochrome P450 2C9 (Homo sapiens, UniProt P11712); assay: Inhibition of CYP2C9 in human liver microsomes using diclofenac as substrate incubated for 10 to 30 mins in presence of NADPH by LC-MS/MS method; assay type: ADME, Microsome
Cytochrome P450 3A4 [29] = target: T1, Cytochrome P450 3A4; assay: Time dependent inhibition of CYP3A4 in pooled human liver microsomes measured upto 30 mins by LC-MS/MS method; assay type: ADME, Microsome; conditions: 0.5 h
Cytochrome P450 2C9 [30] = target: T2, Cytochrome P450 2C9; assay: Time dependent inhibition of CYP2C9 in pooled human liver microsomes measured upto 30 mins by LC-MS/MS method; assay type: ADME, Microsome; conditions: 0.5 h
[31] = target: Voltage-gated inwardly rectifying potassium channel KCNH2 (Homo sapiens, UniProt Q12809); assay: Inhibition of human ERG by manual patch clamp method; assay type: toxicity
[32] = target: Voltage-dependent L-type calcium channel subunit alpha-1C (Homo sapiens, UniProt Q13936); assay: Inhibition of Cav1.2 (unknown origin)
[33] = target: Sodium channel protein type 5 subunit alpha (Homo sapiens, UniProt Q14524); assay: Inhibition of Nav1.5 (unknown origin)
Cav1.2 = Cav1.2 (Homo sapiens, UniProt Q13936); assay: Inhibition of Cav1.2 (unknown origin) at 50 uM relative to control
Nav1.5 = Nav1.5 (Homo sapiens, UniProt Q14524); assay: Inhibition of Nav1.5 (unknown origin) at 50 uM relative to control
[34] = Plasma protein binding in mouse incubated for 6 hrs by LC-MS/MS based rapid equlibrium dialysis method; assay type: ADME, cell-free; conditions: read-out: PPB (converted)
[35] = Plasma protein binding in rat incubated for 6 hrs by LC-MS/MS based rapid equlibrium dialysis method; assay type: ADME, cell-free; conditions: read-out: PPB (converted)
[36] = Plasma protein binding in dog incubated for 6 hrs by LC-MS/MS based rapid equlibrium dialysis method; assay type: ADME, cell-free, Canis lupus familiaris; conditions: read-out: PPB (converted)
[37] = Plasma protein binding in human incubated for 6 hrs by LC-MS/MS based rapid equlibrium dialysis method; assay type: ADME, cell-free; conditions: read-out: PPB (converted)
[38] = Toxicity in mouse xenografted with human MIA PaCa-2 cells assessed as tolerability at 3 to 30 mg/kg, po; assay type: organism-based; conditions: in vivo, dose 3-30 mg/kg
[39] = Tmax in mouse xenografted with human MIA PaCa-2 cells at 3 to 30 mg/kg, po; assay type: ADME, organism-based; conditions: in vivo, dose 3-30 mg/kg
MIA PaCa-2 [40] = assay: Antitumor activity against human MIA PaCa-2 cells xenografted in mouse assessed as tumor regression at 10 mg/kg, po; assay type: functional
MIA PaCa-2 [41] = assay: Antitumor activity against human MIA PaCa-2 cells xenografted in mouse assessed as tumor regression at 30 mg/kg, po; assay type: functional

## C=CC(=O)N1CC2(CC(n3nc(-c4ccc5c(cnn5CCOC)c4)c(-c4c(Cl)c(C)cc5[nH]ncc45)c3C)C2)C1
[1]
  Ratio: 190 mM⁻¹ s⁻¹
GTPase KRas
  pIC50: 8.10
[2]
  solubility: 10 µM (≈ 5.7 µg/mL)
[3]
  logD: 4.5
[4]
  AUC: 1.5 µM·h
[5]
  Cmax: 600 nM
[6]
  Occ: 100%
[7]
  Occ: 100%
[8]
  Occ: 100%
[9]
  Occ: 100%

## C=CC(=O)N1CC2(CC(n3nc(-c4ccc5cn[nH]c5c4)c(-c4c(Cl)c(C)cc5[nH]ncc45)c3C)C2)C1
[1]
  Ratio: 19 mM⁻¹ s⁻¹
GTPase KRas
  pIC50: 7.30

## C=CC(=O)Nc1ccc(-n2nc(C(C)C)c(-c3c(C)ccc4[nH]ncc34)c2C)cc1
[1]
  Ratio: 0.6 mM⁻¹ s⁻¹

## C=CC(=O)N1CC2(CC(n3nc(-c4ccc5nnccc5c4)c(-c4c(Cl)c(C)cc5[nH]ncc45)c3C)C2)C1
[1]
  Ratio: 25 mM⁻¹ s⁻¹
[10]
  Papp A→B at 2 h, 10 µM: 6.1 ×10⁻⁶ cm/s
[2]
  solubility: 10 µM (≈ 5.24 µg/mL)
[3]
  logD: 4.1

## C=CC(=O)N1CC2(CC(n3nc(-c4ccc5nn(CCN6CCOCC6)cc5c4)c(-c4c(Cl)c(C)cc5[nH]ncc45)c3C)C2)C1
[1]
  Ratio: 190 mM⁻¹ s⁻¹
GTPase KRas
  pIC50: 8.00
[10]
  Papp A→B at 2 h, 10 µM: 2.8 ×10⁻⁶ cm/s
[11]
  solubility: > 1000 µM
[2]
  solubility: 30 µM (≈ 18.8 µg/mL)
[3]
  logD: 4.2

## C=CC(=O)N1CC2(CC(n3nc(-c4ccc5c(cnn5C)c4)c(-c4c(Cl)c(C)cc5[nH]ncc45)c3C)C2)C1 [OPNURASIB]
GTPase KRas
  pIC50: 7.70
[10]
  Papp A→B at 2 h, 10 µM: 5 ×10⁻⁶ cm/s
[11]
  solubility: 10 µM (≈ 5.26 µg/mL)
[2]
  solubility: 10 µM (≈ 5.26 µg/mL)
[3]
  logD: 4.6
[4]
  AUC: 8.9 µM·h
[5]
  Cmax: 1700 nM
[6]
  Occ: 3%
[12]
  Occ: 2%
[7]
  Occ: 23%
[8]
  Occ: 27%
[13]
  Occ: 37%
[9]
  Occ: 100%
[14]
  Vd: 5.9 L/kg
[15]
  Tmax: 0.5 h
[16]
  Cmax: 2000 nM
[17]
  AUC(0-inf): 6 µM·h
[18]
  Vd: 4.2 L/kg
[19]
  Tmax: 5 h
[20]
  Cmax: 1100 nM
[21]
  AUC(0-inf): 10 µM·h
[22]
  AUC/dose: 0.65 µM·h
[23]
  AUC/dose: 0.2 µM·h
NCI-H358
  GI50: 18 nM
NCI-H1437
  GI50: 4400 nM
[24]
  solubility: 6 µg/mL (≈ 11.4 µM)
[25]
  solubility: 250 µg/mL (≈ 475 µM)
[26]
  Papp: 6.78 ×10⁻⁶ cm/s
Cytochrome P450 3A4 [27]
  pIC50: 5.21
Cytochrome P450 2D6
  pIC50: < 4.70
Cytochrome P450 2C9 [28]
  pIC50: 5.43
Cytochrome P450 3A4 [29]
  TDI: Not Active
Cytochrome P450 2C9 [30]
  TDI: Not Active
[31]
  pIC50: < 5.33
[32]
  pIC50: < 5.00
[33]
  pIC50: < 5.00
Cav1.2
  inhibition at 50 µM: 8%
Nav1.5
  inhibition at 50 µM: 12%
[34]
  fraction unbound at 6 h: 0.016
[35]
  fraction unbound at 6 h: 0.024
[36]
  fraction unbound at 6 h: 0.031
[37]
  fraction unbound at 6 h: 0.007
[38]
  Activity: Non-Toxic
[39]
  Tmax: 1 h
MIA PaCa-2 [40]
  Activity: -34%
MIA PaCa-2 [41]
  Activity: -87%
